SMILES strings stand for the structures. Values after ≈ are worked out from the molar mass of the structure shown. Values joined by “and” are separate entries in the source; they are usually repeats but may differ in a detail not shown here. Equal entries are not always repeated. Where only a bound is given, the exact number is not on record here.

Common to all, as to test: ≥ marks a high value that may be exact or a test limit, other limits are often not marked, values filed in µg/mL are converted to µM
Experiment [1] has as its system Mycobacterium tuberculosis H37Rv.
For experiment [2], the system named is Staphylococcus aureus ATCC 6538.
The test system of experiment [3] is Escherichia coli DH5alpha.
Experiment [4] deals with Micrococcus luteus ATCC 4698.
The subject of experiment [5] is Staphylococcus epidermidis ATCC 12228.
Experiment [6] concerns Klebsiella pneumoniae ATCC 10031.
The subject of experiment [7] is Escherichia coli ATCC 11219.
In experiment [8] the test system is Salmonella enterica subsp. enterica serovar Typhimurium ATCC 14028.
For experiment [9], the system named is Pseudomonas aeruginosa ATCC 13388.
Experiment [10] concerns Bacillus subtilis 168 HT.
The test system of experiment [11] is Escherichia coli MG1655.
Experiment [12] has as its system Bacillus subtilis ATCC 6633.
Experiment [13] concerns Escherichia coli ATCC 25922.
Experiment [14] relates to Staphylococcus aureus ATCC 25923.
For experiment [15], the system named is Pseudomonas aeruginosa ATCC BAA-427.
Experiment [16] deals with Escherichia coli.
Experiment [17] deals with Salmonella enterica subsp. enterica serovar Enteritidis.
Experiment [18] relates to Listeria innocua.
The test system of experiment [19] is Micrococcus luteus A270.
Experiment [20] deals with Candida albicans MDM8.
Experiment [21] deals with Escherichia coli SBS 363.
In experiment [22] the test system is Micrococcus luteus.
Experiment [23] concerns Staphylococcus aureus.

Take `CSCC[C@H](NC(=O)CNC(=O)[C@H](CC(C)C)NC(=O)[C@H](CCCN=C(N)N)NC(=O)[C@H](CCCN=C(N)N)NC(=O)[C@H](C)N)C(=O)N[C@@H](CC(N)=O)C(=O)N1CCC[C@H]1C(=O)N[C@@H](Cc1c[nH]c2ccccc12)C(=O)N[C@@H](CCCCN)C(=O)N[C@H](C(=O)N1CCC[C@H]1C(=O)N1CCC[C@H]1C(=O)N[C@@H](C)C(=O)N[C@@H](CCCCN)C(=O)N1CCC[C@H]1C(=O)N[C@@H](CCCCN)C(=O)NCC(=O)N[C@@H](CO)C(=O)N[C@@H](CCCCN)C(=O)O)[C@@H](C)O` [ARRLGMNPWKTPPAKPKGSK]: the MIC – broadly, the smallest concentration in the dilution series that meets the test's criterion for growth inhibition – in experiment [1] is no less than 90.1 µM.

Take `CC(C)C[C@H](NC(=O)[C@H](CC(C)C)NC(=O)[C@H](CCCCN)NC(=O)[C@H](CO)NC(=O)[C@@H](NC(=O)[C@@H](NC(=O)[C@H](CCCCN)NC(=O)[C@H](Cc1ccccc1)NC(=O)[C@H](CC(C)C)NC(=O)[C@H](C)NC(=O)CNC(=O)[C@H](CC(C)C)NC(=O)[C@@H](N)Cc1ccccc1)C(C)C)C(C)C)C(=O)O` [FLGALFKVVSKLL]: the MIC in experiment [2] came out at 5.58 µM (≈ 8 µg/mL); in experiment [3], 27.9 µM (≈ 40 µg/mL); in experiment [4], 4.18 µM (≈ 6 µg/mL); in [5], 9.76 µM (≈ 14 µg/mL).

On to `CC(C)C[C@H](NC(=O)[C@H](CC(C)C)NC(=O)[C@H](CCCCN)NC(=O)[C@H](CO)NC(=O)[C@H](CC(C)C)NC(=O)[C@H](C)NC(=O)[C@H](CCCCN)NC(=O)[C@@H](NC(=O)[C@H](CC(C)C)NC(=O)[C@H](C)NC(=O)CNC(=O)[C@H](CC(C)C)NC(=O)[C@@H](N)Cc1ccccc1)C(C)C)C(=O)O` [FLGALVKALSKLL], for which the MIC in [2] was 5.1 µM (≈ 7 µg/mL); in [3], 21.9 µM (≈ 30 µg/mL); in experiment [4], 3.64 µM (≈ 5 µg/mL); in experiment [5], 8.01 µM (≈ 11 µg/mL).

On to `CC[C@H](C)[C@H](NC(=O)CN)C(=O)NCC(=O)N[C@@H](CCCCN)C(=O)N[C@@H](Cc1ccccc1)C(=O)N[C@@H](CC(C)C)C(=O)N[C@@H](CCCCN)C(=O)N[C@@H](CO)C(=O)N[C@@H](CCCCN)C(=O)NCC(=O)N[C@@H](CCCCN)C(=O)N[C@@H](Cc1ccccc1)C(=O)NCC(=O)N[C@@H](CCCCN)C(=O)N[C@@H](C)C(=O)O` [GIGKFLKSKGKFGKA], for which, in experiment [1], the MIC was no less than 192 µM.

For `CC[C@H](C)[C@H](NC(=O)CN)C(=O)N[C@@H](Cc1cnc[nH]1)C(=O)N[C@@H](CC(=O)O)C(=O)N[C@@H](C)C(=O)N[C@@H](CC(C)C)C(=O)N[C@@H](CCCCN)C(=O)N[C@@H](Cc1ccc(O)cc1)C(=O)NCC(=O)N[C@@H](CCCCN)C(=O)N1CCC[C@H]1C(=O)N[C@@H](CO)C(N)=O` [GIHDALKYGKPS], the MIC was 20 µM (≈ 25.7 µg/mL) in [6]; 20 µM (≈ 25.7 µg/mL) in experiment [2]; 20 µM (≈ 25.7 µg/mL) in experiment [7]; 4 µM (≈ 5.14 µg/mL) in experiment [8]; 10 µM (≈ 12.8 µg/mL) in experiment [9].

`CC[C@H](C)[C@H](NC(=O)CN)C(=O)N[C@@H](Cc1cnc[nH]1)C(=O)N[C@@H](CC(=O)O)C(=O)N[C@H](C(=O)N[C@@H](CC(C)C)C(=O)N[C@@H](CCCCN)C(=O)N[C@@H](Cc1ccc(O)cc1)C(=O)NCC(=O)N[C@@H](CCCCN)C(=O)N[C@@H](C)C(=O)N[C@@H](CO)C(N)=O)[C@@H](C)CC` [GIHDILKYGKAS]: the MIC was 30 µM (≈ 39 µg/mL) in experiment [6]; 10 µM (≈ 13 µg/mL) in experiment [2]; no less than 50 µM in experiment [7]; 10 µM (≈ 13 µg/mL) in experiment [8]; 30 µM (≈ 39 µg/mL) in experiment [9].

In the case of `CC[C@H](C)[C@H](NC(=O)CN)C(=O)N[C@@H](Cc1cnc[nH]1)C(=O)N[C@@H](CC(=O)O)C(=O)N[C@H](C(=O)N[C@@H](CC(C)C)C(=O)N[C@@H](CCCCN)C(=O)N[C@@H](Cc1ccc(O)cc1)C(=O)NCC(=O)N[C@@H](CCCCN)C(=O)N[C@@H](CCCCN)C(=O)N[C@@H](CO)C(N)=O)[C@@H](C)CC` [GIHDILKYGKKS], the MIC was determined as 20 µM (≈ 27.2 µg/mL) in experiment [6]; 30 µM (≈ 40.7 µg/mL) in experiment [2]; 10 µM (≈ 13.6 µg/mL) in experiment [7]; 20 µM (≈ 27.2 µg/mL) in [8]; 20 µM (≈ 27.2 µg/mL) in experiment [9].

On to `CC[C@H](C)[C@H](NC(=O)[C@@H](NC(=O)[C@H](CCCCN)NC(=O)[C@H](CCCCN)NC(=O)[C@H](Cc1ccccc1)NC(=O)[C@@H](N)CCCCN)C(C)C)C(=O)N[C@@H](Cc1c[nH]c2ccccc12)C(=O)N[C@@H](CCCCN)C(=O)N[C@@H](CO)C(=O)N[C@@H](Cc1ccccc1)C(=O)N[C@@H](CC(C)C)C(=O)O` [KFKKVIWKSFL], for which the MIC is no less than 45 µM in experiment [10] and no less than 90 µM in experiment [11].

`CC(C)C[C@H](NC(=O)[C@H](CC(C)C)NC(=O)[C@H](CCCN=C(N)N)NC(=O)[C@H](CCCN=C(N)N)NC(=O)[C@H](CCCCN)NC(=O)[C@H](C)NC(=O)[C@H](CCCCN)NC(=O)[C@@H](N)CCCCN)C(=O)N[C@@H](CCCCN)C(=O)N[C@@H](CCCCN)C(=O)O` [KKAKRRLLKK]: the MIC in experiment [10] and in experiment [11] was no less than 101 µM in each case.

For the compound `CC(C)C[C@H](NC(=O)[C@H](CC(=O)O)NC(=O)[C@H](CC(C)C)NC(=O)[C@H](CCCCN)NC(=O)[C@H](CC(C)C)NC(=O)[C@H](CC(=O)O)NC(=O)[C@H](CC(C)C)NC(=O)[C@H](CCCCN)NC(=O)[C@H](CC(C)C)NC(=O)[C@H](CC(=O)O)NC(=O)[C@H](CC(C)C)NC(=O)[C@@H](N)CCCCN)C(=O)O` [KLDLKLDLKLDL], the MIC was no less than 100 µM in [12], greater than 100 µM in experiment [13], greater than 100 µM in [14] and no less than 100 µM in experiment [15].

With `CC[C@H](C)[C@H](NC(=O)CNC(=O)[C@@H](NC(=O)[C@H](CCCCN)NC(=O)[C@@H](NC(=O)CNC(=O)[C@H](CC(C)C)NC(=O)[C@H](Cc1c[nH]c2ccccc12)NC(=O)[C@H](CCCN=C(N)N)NC(=O)[C@@H](N)CC(C)C)[C@@H](C)O)C(C)C)C(=O)N[C@@H](CC(C)C)C(=O)N[C@@H](CCCCN)C(=O)O` [LRWLGTKVGILK], the MIC in experiment [10] and in [11] was no less than 92 µM in each case.

Turning to `CC(C)C[C@H](N)C(=O)N[C@@H](CO)C(=O)N[C@@H](Cc1ccccc1)C(=O)N1CCC[C@H]1C(=O)N[C@H](C(=O)N[C@H](C(=O)N[C@@H](CCCCN)C(=O)N[C@H](C(=O)N[C@@H](Cc1ccc(O)cc1)C(=O)N[C@@H](Cc1ccccc1)C(=O)N1CCC[C@H]1C(=O)N[C@@H](Cc1cnc[nH]1)C(=O)N[C@@H](Cc1ccccc1)C(=O)O)[C@@H](C)O)[C@@H](C)O)[C@@H](C)O` [LSFPTTKTYFPHF], the MIC came out at 9 µM (≈ 14.3 µg/mL) in experiment [16], 5 µM (≈ 7.93 µg/mL) in experiment [17], 1 µM (≈ 1.59 µg/mL) in [18] and 5 µM (≈ 7.93 µg/mL) in experiment [19].

For `CC[C@H](C)[C@H](NC(=O)[C@H](CC(C)C)NC(=O)[C@H](CO)NC(=O)[C@H](CC(C)C)NC(=O)[C@H](CC(C)C)NC(=O)[C@@H](N)CCCN=C(N)N)C(=O)N[C@@H](CCCN=C(N)N)C(=O)N[C@@H](CCCCN)C(=O)N[C@@H](CC(C)C)C(=O)N[C@H](C(=O)N[C@H](C(N)=O)[C@@H](C)O)[C@@H](C)CC` [RLLSLIRKLIT], the MIC came to 0.78 µM (≈ 1.03 µg/mL) in experiment [20], 1.56 µM (≈ 2.07 µg/mL) in experiment [21] and 0.5 µM (≈ 0.662 µg/mL) in experiment [19].

With `C[C@@H](O)[C@H](N)C(=O)N[C@@H](CO)C(=O)N[C@@H](CCCCN)C(=O)N[C@@H](Cc1ccc(O)cc1)C(=O)N[C@@H](CCCN=C(N)N)C(=O)O` [TSKYR], the MIC in experiment [22] was 9 µM (≈ 5.88 µg/mL); in experiment [16], 9 µM (≈ 5.88 µg/mL); in experiment [17], 5 µM and 4.6 µM; in experiment [18], 1 µM (≈ 0.654 µg/mL); in [23], 1 µM (≈ 0.654 µg/mL); in [19], 9 µM (≈ 5.88 µg/mL).

As to `CC[C@H](C)[C@H](NC(=O)CNC(=O)[C@@H](N)Cc1c[nH]c2ccccc12)C(=O)N[C@@H](Cc1cnc[nH]1)C(=O)N[C@@H](CCCN=C(N)N)C(=O)N[C@H](C(=O)N[C@@H](CC(C)C)C(=O)N[C@@H](CCCCN)C(=O)N[C@@H](Cc1ccc(O)cc1)C(=O)NCC(=O)N[C@@H](CCCCN)C(=O)N1CCC[C@H]1C(=O)N[C@@H](CO)C(=O)O)[C@@H](C)CC` [WGIHRILKYGKPS], the MIC is 12 µM (≈ 18.7 µg/mL) in experiment [6]; 8 µM (≈ 12.4 µg/mL) in experiment [2]; 8 µM (≈ 12.4 µg/mL) in [7]; 10 µM (≈ 15.5 µg/mL) in [8]; 12 µM (≈ 18.7 µg/mL) in experiment [9].

The values above are taken from DBAASP.
